Experimental data as given in US10183013B2, “Cyclic sulfonamide containing derivatives as inhibitors of hedgehog signaling pathway” (NantBioScience, Inc., priority 2012, dated 2019).

System: Hedgehog signalling (Gli-bla NIH3T3 cells, mShh stimulated)
Assay: Hedgehog signalling inhibition assay (Gli-Bla reporter assay in NIH 3T3 cells)
Assay type: cell-based
Details: Mus musculus, NIH3T3, 24 h; read-out: EC50
Experimental: Hedgehog signalling inhibition assays. The following table 2 represents the average EC50 values for particular compounds of the inventions. Gli-bla NIH3T3 cells (7500 cells/well) were plated the day prior to the assay in a 384-well and 96-format in complete growth medium. […] Cells were stimulated with mShh for 24 hours and then loaded with LiveBLAzer™-FRET B/G Substrate for 3 hours. Emission values at 460 nm and 530 nm were obtained using a standard fluorescence plate reader and the 460/530 Ratios plotted for each treatment (n=4 for each data point).
J. Cancer, 2011, 30(7):472-81).

| Compound | EC50 |
| --- | --- |
| O=C(Nc1ccc(Oc2cccc(Cl)c2)cc1)c1ccc(N2CCCS2(=O)=O)cc1Cl [Example 141] | < 10 nM |
| O=C(Nc1ccc(Cl)c(-c2ccccn2)c1)c1ccc(N2CCCS2(=O)=O)cc1 [Example 84] | < 10 nM |
| O=C(Nc1ccc(Cl)c(-c2nccc3ccccc23)c1)c1ccc(N2CCOCS2(=O)=O)cc1Cl [Example 104, 2-chloro-N-(4-chloro-3-(isoquinolin-1-yl)phenyl)-4-(3,3-dioxido-1,3,4-oxathiazinan-4-yl)benzamide] | < 10 nM |
| O=C(Nc1ccc(Cl)c(-c2ccccn2)c1)c1ccc(N2CCOCS2(=O)=O)cc1F [Example 123, N-(4-chloro-3-(pyridin-2-yl)phenyl)-4-(3,3-dioxido-1,3,4-oxathiazinan-4-yl)-2-fluorobenzamide] | < 10 nM |
| O=C(Nc1ccc(Cl)c(-c2nccc3ncccc23)c1)c1ccc(N2CCOCS2(=O)=O)cc1 [Example 109, N-(4-chloro-3-(1,6-naphthyridin-5-yl)phenyl)-4-(3,3-dioxido-1,3,4-oxathiazinan-4-yl)benzamide] | < 10 nM |
| O=C(Nc1ccc(Cl)c(-c2ccc3ncccc3n2)c1)c1ccc(N2CCCCS2(=O)=O)cc1Cl [Example 102] | < 10 nM |
| O=C(Nc1cc(NC(=O)c2ccc(N3CCCS3(=O)=O)cc2Cl)ccc1Cl)c1ccccc1 [Example 134] | < 10 nM |
| O=C(Nc1ccc(Cl)c(-c2nccc3ccccc23)c1)c1ccc(N2CCOCS2(=O)=O)cc1F [Example 117, N-(4-chloro-3-(isoquinolin-1-yl)phenyl)-4-(3,3-dioxido-1,3,4-oxathiazinan-4-yl)-2-fluorobenzamide] | 16000 nM |
| CC(=O)Nc1cc(NC(=O)c2ccc(N3CCOCS3(=O)=O)cc2Cl)ccc1Cl [Example 143] | < 10 nM |
| O=C(Nc1ccc(Cl)c(-c2ccc3cnccc3n2)c1)c1ccc(N2CCCS2(=O)=O)cc1 [Example 90] | 12000 nM |
| O=C(Nc1ccc(Cl)c(-c2ccc3ncccc3n2)c1)c1ccc(N2CCCS2(=O)=O)cc1 [Example 88] | 10000 nM |
| O=C(Nc1ccc(Cl)c(-c2ccc3ccccc3n2)c1)c1ccc(N2CCCS2(=O)=O)cc1 [Example 87] | 3000 nM |
| O=C(Nc1ccc(Cl)c(Oc2cccc(Cl)c2)c1)c1ccc(N2CCCS2(=O)=O)cc1Cl [Example 131] | < 10 nM |
| O=C(Nc1ccc(Cl)c(-c2ncc3ccccc3n2)c1)c1ccc(N2CCCCS2(=O)=O)cc1 [Example 95] | < 10 nM |
| O=C(Nc1ccc(Cl)c(-c2nccc3ncccc23)c1)c1ccc(N2CCCS2(=O)=O)cc1Cl [Example 112] | < 10 nM |
| O=C(Nc1ccc(Cl)c(-c2ccc3cnccc3n2)c1)c1ccc(N2CCOCS2(=O)=O)cc1Cl [Example 107, 2-chloro-N-(4-chloro-3-(1,6-naphthyridin-2-yl)phenyl)-4-(3,3-dioxido-1,3,4-oxathiazinan-4-yl)benzamide] | < 10 nM |
| O=C(Nc1ccc(Cl)c(-c2nccc3ccccc23)c1)c1ccc(N2CCCCS2(=O)=O)cc1 [Example 94] | < 10 nM |
| O=C(Nc1cc(NC(=O)c2ccc(N3CCOCS3(=O)=O)cc2Cl)ccc1Cl)c1ccc(Cl)cc1 [Example 126, 2-chloro-N-(4-chloro-3-(4-chlorobenzamido)phenyl)-4-(3,3-dioxido-1,3,4-oxathiazinan-4-yl)benzamide] | < 10 nM |
| O=C(Nc1ccc(Cl)c(-c2ccc3cnccc3n2)c1)c1ccc(N2CCCCS2(=O)=O)cc1 [Example 96] | < 10 nM |
| O=C(Nc1ccc(Cl)c(Oc2cccc(Cl)c2)c1)c1ccc(N2CCCS2(=O)=O)cc1 [Example 138] | < 10 nM |
| O=C(Nc1cc(NC(=O)c2ccc(N3CCOCS3(=O)=O)cc2F)ccc1Cl)c1ccccc1 [Example 124, N-(3-benzamido-4-chlorophenyl)-4-(3,3-dioxido-1,3,4-oxathiazinan-4-yl)-2-fluorobenzamide] | < 10 nM |
| O=C(Nc1ccc(Cl)c(NC(=O)c2ccccc2)c1)c1ccc(N2CCCS2(=O)=O)c(F)c1 [Example 118] | < 10 nM |
| O=C(Nc1ccc(Cl)c(-c2ncc3ccccc3n2)c1)c1ccc(N2CCCCS2(=O)=O)cc1Cl [Example 100] | < 10 nM |
| O=C(Nc1ccc(Cl)c(NC(=O)c2cccc(Cl)c2)c1)c1ccc(N2CCCS2(=O)=O)c(Cl)c1 [Example 132] | < 10 nM |
| O=C(Nc1cc(NC(=O)c2ccc(N3CCCS3(=O)=O)cc2Cl)ccc1Cl)c1cccc(Cl)c1 [Example 120] | < 10 nM |
| O=C(Nc1cc(NC(=O)c2ccc(N3CCOCS3(=O)=O)cc2Cl)ccc1Cl)c1cccc(Cl)c1 [Example 130] | < 10 nM |
| O=C(Nc1ccc(Cl)c(-c2nccc3ncccc23)c1)c1ccc(N2CCOCS2(=O)=O)cc1Cl [Example 105, 2-chloro-N-(4-chloro-3-(1,6-naphthyridin-5-yl)phenyl)-4-(3,3-dioxido-1,3,4-oxathiazinan-4-yl)benzamide] | < 10 nM |

| Compound | EC50 |
| --- | --- |
| O=C(Nc1ccc(Cl)c(-c2ccc3ccccc3n2)c1)c1ccc(N2CCCCS2(=O)=O)cc1Cl [Example 99] | < 10 nM |
| O=C(Nc1ccc(Cl)c(-c2nccc3ncccc23)c1)c1ccc(N2CCOCS2(=O)=O)cc1F [Example 116, N-(4-chloro-3-(1,6-naphthyridin-5-yl)phenyl)-4-(3,3-dioxido-1,3,4-oxathiazinan-4-yl)-2-fluorobenzamide] | < 10 nM |
| O=C(Nc1ccc(Cl)c(Oc2cccc(Cl)c2)c1)c1ccc(N2CCCS2(=O)=O)c(F)c1 [Example 139] | < 10 nM |
| O=C(Nc1ccc(Cl)c(NC(=O)c2cccc(Cl)c2)c1)c1ccc(N2CCCCS2(=O)=O)cc1 [Example 128] | < 10 nM |
| O=C(Nc1cc(NC(=O)c2ccc(N3CCCS3(=O)=O)cc2Cl)ccc1Cl)c1cccnc1 [Example 135, N-(2-chloro-5-(2-chloro-4-(1,1-dioxidoisothiazolidin-2-yl)benzamido)phenyl) nicotinamide] | < 10 nM |
| O=C(Nc1ccc(Cl)c(-c2ccc3ncccc3n2)c1)c1ccc(N2CCOCS2(=O)=O)cc1Cl [Example 106, 2-chloro-N-(4-chloro-3-(1,5-naphthyridin-2-yl)phenyl)-4-(3,3-dioxido-1,3,4-oxathiazinan-4-yl)benzamide] | < 10 nM |
| O=C(Nc1ccc(Cl)c(-c2ccc3cnccc3n2)c1)c1ccc(N2CCCCS2(=O)=O)cc1Cl [Example 101] | < 10 nM |
| O=C(Nc1ccc(Cl)c(NC(=O)c2ccccc2Cl)c1)c1ccc(N2CCOCS2(=O)=O)cc1Cl [Example 133, 2-chloro-N-(4-chloro-3-(2-chlorobenzamido)phenyl)-4-(3,3-dioxido-1,3,4-oxathiazinan-4-yl)benzamide] | < 10 nM |
| O=C(Nc1cc(NC(=O)c2ccc(N3CCOCS3(=O)=O)cc2Cl)ccc1Cl)c1nccs1 [Example 127, N-(2-chloro-5-(2-chloro-4-(3,3-dioxido-1,3,4-oxathiazinan-4-yl)benzamido)phenyl)thiazole-2-carboxamide] | < 10 nM |
| O=C(Nc1cc(NC(=O)c2ccc(N3CCOCS3(=O)=O)cc2Cl)ccc1Cl)c1cccc(F)c1 [Example 125, 2-chloro-N-(4-chloro-3-(3-fluorobenzamido)phenyl)-4-(3,3-dioxido-1,3,4-oxathiazinan-4-yl)benzamide] | < 10 nM |
| O=C(Nc1ccc(Cl)c(-c2ncc3ccccc3n2)c1)c1ccc(N2CCCS2(=O)=O)cc1 [Example 89] | 14000 nM |
| O=C(Nc1ccc(Cl)c(NC(=O)c2cccc(Cl)c2)c1)c1ccc(N2CCCS2(=O)=O)cc1 [Example 129] | < 10 nM |
| O=C(Nc1cc(NC(=O)c2ccc(N3CCOCS3(=O)=O)cc2Cl)ccc1Cl)c1ccccc1 [Example 122, N-(3-benzamido-4-chlorophenyl)-2-chloro-4-(3,3-dioxido-1,3,4-oxathiazinan-4-yl)benzamide] | < 10 nM |
| O=C(Nc1ccc(Cl)c(-c2nccc3ccccc23)c1)c1ccc(N2CCCS2(=O)=O)c(Cl)c1 [Example 114] | < 10 nM |
| O=C(Nc1ccc(Oc2cccc(Cl)c2)cc1)c1ccc(N2CCOCS2(=O)=O)cc1Cl [Example 142] | < 10 nM |
| O=C(Nc1ccc(Cl)c(-c2nccc3ccccc23)c1)c1ccc(N2CCCCS2(=O)=O)cc1Cl [Example 98] | < 10 nM |
| O=C(Nc1cc(NC(=O)c2ccc(N3CCOCS3(=O)=O)cc2Cl)ccc1Cl)c1cccnc1 [Example 136] | < 10 nM |
| O=C(Nc1ccc(Cl)c(-c2nccc3ccccc23)c1)c1ccc(N2CCOCS2(=O)=O)cc1 [Example 108, N-(4-chloro-3-(isoquinolin-1-yl)phenyl)-4-(3,3-dioxido-1,3,4-oxathiazinan-4-yl)benzamide] | 11000 nM |
| O=C(Nc1ccc(Cl)c(-c2nccc3ccccc23)c1)c1ccc(N2CCCCS2(=O)=O)c(Cl)c1 [Example 115] | < 10 nM |
| O=C(Nc1ccc(Cl)c(-c2nccc3ncccc23)c1)c1ccc(N2CCCCS2(=O)=O)cc1Cl [Example 103] | < 10 nM |
| O=C(Nc1ccc(Cl)c(-c2nccc3ccccc23)c1)c1ccc(N2CCCS2(=O)=O)cc1 [Example 86] | 28000 nM |
| O=C(Nc1ccc(Cl)c(-c2ccc3ncccc3n2)c1)c1ccc(N2CCCCS2(=O)=O)cc1 [Example 97] | < 10 nM |
| O=C(Nc1ccc(Cl)c(-c2ccc3ccccc3n2)c1)c1ccc(N2CCCCS2(=O)=O)cc1 [Example 93] | < 10 nM |
| O=C(Nc1ccc(Cl)c(-c2ccccn2)c1)c1ccc(N2CCOCS2(=O)=O)cc1Cl [Example 85, 2-chloro-N-(4-chloro-3-(pyridin-2-yl)phenyl)-4-(3,3-dioxido-1,3,4-oxathiazinan-4-yl)benzamide] | < 10 nM |
| O=C(Nc1ccc(Cl)c(NC(=O)c2cccc(Cl)c2)c1)c1ccc(N2CCCS2(=O)=O)c(F)c1 [Example 121] | < 10 nM |
| O=C(Nc1ccc(Cl)c(NC(=O)c2cccnc2)c1)c1ccc(N2CCCS2(=O)=O)c(F)c1 [Example 119] | < 10 nM |

Same assay, conditions: Mus musculus, NIH3T3; NIH 3T3 cells; read-out: Gli-Bla reporter assay (EC50)

| Compound | EC50 |
| --- | --- |
| CS(=O)(=O)c1ccc(C(=O)Nc2ccc(Cl)c(-c3ccccn3)c2)c(Cl)c1 [GDC-0449, reference compound] | 7 nM |
